Assay results reported in patent publication US12128035B2, “Activating pyruvate kinase R” (Novo Nordisk Health Care AG, priority 2021, dated 2024).

Tested on: ATP blood levels
Assay: Phase 1 SAD/MAD: blood ATP (LC-MS/MS) in healthy volunteers
Assay type: in vivo, human
Procedure: In this study, SAD/MAD cohorts are randomized (3 to 1) to receive Compound 1 or placebo (P). Compound 1 was evaluated first in 4 healthy SAD cohorts and 4 healthy MAD (14-day dosing period) cohorts. Based on the safety, and PK/PD profile from HS, Compound 1 is then evaluated in 1 SCD SAD cohort and 2 SCD MAD cohorts. Specifically, based on the safety and pharmacokinetic/pharmacodynamics (PK/PD) profile in healthy volunteer studies, Compound 1 is evaluated in patients (pts) with SCD, first in a single dose (SD or SAD) cohort and then in multiple-dose (MD or MAD) cohorts (14-day and 12-week). Safety assessments include AEs, vital signs, ECGs and laboratory parameters. PK/PD blood sampling was performed on Day 1 (SAD/MAD) and Day 14 (MAD) and up to 72 h after the last dose and at the end-of-study visit. PD parameters included 2,3-DPG, ATP, and p50 in all cohorts with additional PD studies (including oxygen scan) performed only in the SCD cohorts. PD parameters included 2,3-DPG, ATP, p50, RBC deformability with controlled deoxygenation and reoxygenation (Lorrca® oxygen scan) and varying osmolality (Lorrca® osmoscan)). To maintain study blind, pt identifiers were removed when needed.
In the MAD cohorts, the subjects' blood ATP levels were measured […] by a qualified LC-MS/MS method for the quantitation of ATP in blood. […] Table 20A reports the median percentage change in blood ATP levels, relative to baseline, measured over time after the first dose on days 1 and 14 in healthy volunteers who received daily doses of Compound 1 (100 mg BID, 200 mg BID, 300 mg BID, or 400 mg QD) or placebo for 14 days. Table 20B reports the mean percentage change in ATP blood levels, relative to baseline, measured over time after the first dose on days 1 and 14 in healthy volunteers who received daily doses of Compound 1 (100 mg BID, 200 mg BID, 300 mg BID, or 400 mg QD) for 14 days.
The following procedures are employed for the analysis of ATP and 2,3-DPG in human whole blood K2EDTA using a protein precipitation extraction procedure and analysis by LC-MS/MS.
The following procedures are used for sample extraction prior to analysis via LC-MS/MS. 15.0 μL of the calibration standards, quality controls, matrix blanks, and samples are aliquoted into a 96-well plate. 50.0 μL of the internal standard spiking solution is added to all samples on the plate, with the exception of the matrix blank samples; 50.0 μL of water is added to the matrix blank samples. Subsequently, 150 μL of water is added to all samples on the plate. The plate is then covered and agitated by vortex at high speed for ten minutes, after which 750 μL of methanol is added to all samples on the plate. The plate is covered and agitated by vortex for approximately 1 minute. The plate is then centrifuged at approximately 3500 RPM at approximately 4° C. for five minutes. After centrifugation, a liquid handler is used to transfer 50 μL of each sample to a new 96-well plate, and 200 μL of acetonitrile is added to all samples on the plate. The newly prepared plate is covered and agitated by vortex for approximately 1 minute. The plate is then centrifuged at approximately 3500 RPM at approximately 4° C. for 2 minutes.

[1] = HV 200 mg BID, Day 14, 12 h after first daily dose
[2] = HV 200 mg BID, Day 14, 16 h after first daily dose
[3] = HV 200 mg BID, Day 14, 24 h after first daily dose
[4] = HV 200 mg BID, Day 14, 48 h after first daily dose
[5] = HV 200 mg BID, Day 14, 72 h after first daily dose
[6] = HV 300 mg BID, Day 1, 0 h after first daily dose
[7] = HV 300 mg BID, Day 1, 6 h after first daily dose
[8] = HV 300 mg BID, Day 1, 8 h after first daily dose
[9] = HV 300 mg BID, Day 1, 12 h after first daily dose
[10] = HV 300 mg BID, Day 1, 16 h after first daily dose
[11] = HV 300 mg BID, Day 1, 24 h after first daily dose
[12] = HV 300 mg BID, Day 14, 0 h after first daily dose
[13] = HV 300 mg BID, Day 14, 6 h after first daily dose
[14] = HV 300 mg BID, Day 14, 8 h after first daily dose
[15] = HV 300 mg BID, Day 14, 12 h after first daily dose
[16] = HV 300 mg BID, Day 14, 16 h after first daily dose
[17] = HV 300 mg BID, Day 14, 24 h after first daily dose
[18] = HV 300 mg BID, Day 14, 48 h after first daily dose
[19] = HV 300 mg BID, Day 14, 72 h after first daily dose
[20] = HV 400 mg QD, Day 1, 0 h after first daily dose
[21] = HV 400 mg QD, Day 1, 6 h after first daily dose
[22] = HV 400 mg QD, Day 1, 8 h after first daily dose
[23] = HV 400 mg QD, Day 1, 12 h after first daily dose

For `O=C([C@H](CO)c1ccccc1)N1CC2=C(C1)CN(S(=O)(=O)c1cnc3c(c1)OCCO3)C2` (single isomer, unassigned) [Compound 1], the “Mean Percentage Change in ATP Levels” value [1] was 56%, the “Median Percentage Change in ATP Levels” value [1] was 56% and the “Mean Percentage Change in ATP Levels” value [2] was 53%. For the same compound, the “Median Percentage Change in ATP Levels” value [2] was 57%, the “Mean Percentage Change in ATP Levels” value [3] was 66% and the “Median Percentage Change in ATP Levels” value [3] was 65%. For the same compound, the “Mean Percentage Change in ATP Levels” value [4] was 62%, the “Median Percentage Change in ATP Levels” value [4] was 70% and the “Mean Percentage Change in ATP Levels” value [5] was 57%. For the same compound, the “Median Percentage Change in ATP Levels” value [5] was 54%, the “Mean Percentage Change in ATP Levels” value [6] was 0% and the “Median Percentage Change in ATP Levels” value [6] was 0%. The “Mean Percentage Change in ATP Levels” value [7] was −4.5%, the “Median Percentage Change in ATP Levels” value [7] was −7.6% and the “Mean Percentage Change in ATP Levels” value [8] was −2.0%. The “Median Percentage Change in ATP Levels” value [8] was −2.4%, the “Mean Percentage Change in ATP Levels” value [9] was −0.6% and the “Median Percentage Change in ATP Levels” value [9] was 0.9%. The “Mean Percentage Change in ATP Levels” value [10] was −0.5%, the “Median Percentage Change in ATP Levels” value [10] was −1.1% and the “Mean Percentage Change in ATP Levels” value [11] was 2.2%. For the same compound, the “Median Percentage Change in ATP Levels” value [11] was 1.8%, the “Mean Percentage Change in ATP Levels” value [12] was 46% and the “Median Percentage Change in ATP Levels” value [12] was 46%. For the same compound, the “Mean Percentage Change in ATP Levels” value [13] was 51%, the “Median Percentage Change in ATP Levels” value [13] was 51% and the “Mean Percentage Change in ATP Levels” value [14] was 52%. The “Median Percentage Change in ATP Levels” value [14] was 50%, the “Mean Percentage Change in ATP Levels” value [15] was 49% and the “Median Percentage Change in ATP Levels” value [15] was 51%. The “Mean Percentage Change in ATP Levels” value [16] was 52%, the “Median Percentage Change in ATP Levels” value [16] was 53% and the “Mean Percentage Change in ATP Levels” value [17] was 56%. For the same compound, the “Median Percentage Change in ATP Levels” value [17] was 52%, the “Mean Percentage Change in ATP Levels” value [18] was 57% and the “Median Percentage Change in ATP Levels” value [18] was 58%. The “Mean Percentage Change in ATP Levels” value [19] was 48%, the “Median Percentage Change in ATP Levels” value [19] was 49% and the “Mean Percentage Change in ATP Levels” value [20] was 0%. For the same compound, the “Median Percentage Change in ATP Levels” value [20] was 0%, the “Mean Percentage Change in ATP Levels” value [21] was −1.2% and the “Median Percentage Change in ATP Levels” value [21] was −1.7%. For the same compound, the “Mean Percentage Change in ATP Levels” value [22] was −2.9%, the “Median Percentage Change in ATP Levels” value [22] was −4.5% and the “Mean Percentage Change in ATP Levels” value [23] was 2.4%. For the same compound, the “Median Percentage Change in ATP Levels” value [23] was 3.5% and the “Mean Percentage Change in ATP Levels” value (HV 400 mg QD, Day 1, 16 h after first daily dose) was −2.2%.
